Measured values from paper PMC5410048, “A retro-inverso cell-penetrating peptide for siRNA delivery” (Journal of Nanobiotechnology, 2017).
Non-standard residues stand in square brackets, D forms with d. Residues, ends and D or L forms follow the SMILES beside them.

Tests used:
[1] = not given; remark: listed apart in the source
[2] = not given; remark: listed apart in the source
[3] = not given; remark: listed apart in the source

Row | Molecule | Tryptophan fluorescence emission maximum with siRNA [nm] | Tryptophan fluorescence emission maximum, free peptide [1] [nm] | Mean size (nm) at 0 h, Nb (%) [2] [nm] | Blue shift of tryptophan fluorescence with excess liposomes [3] [nm]
1 | H-GLWRALWRLLRSLWRLLWK-OH | 340 | 348 |  | 
2 | CC(C)C[C@@H](NC(=O)CN)C(=O)N[C@H](Cc1c[nH]c2ccccc12)C(=O)N[C@H](CCCNC(=N)N)C(=O)N[C@H](C)C(=O)N[C@H](CC(C)C)C(=O)N[C@H](Cc1c[nH]c2ccccc12)C(=O)N[C@H](CCCNC(=N)N)C(=O)N[C@H](CC(C)C)C(=O)N[C@H](CC(C)C)C(=O)N[C@H](CCCNC(=N)N)C(=O)N[C@H](CO)C(=O)N[C@H](CC(C)C)C(=O)N[C@H](Cc1c[nH]c2ccccc12)C(=O)N[C@H](CCCNC(=N)N)C(=O)N[C@H](CC(C)C)C(=O)N[C@H](CC(C)C)C(=O)N[C@H](Cc1c[nH]c2ccccc12)C(=O)N[C@H](CCCCN)C(=O)O (H-G[dL][dW][dR][dA][dL][dW][dR][dL][dL][dR][dS][dL][dW][dR][dL][dL][dW][dK]-OH) |  |  | 30 | 
3 | CC(C)C[C@@H](NC(=O)[C@@H](Cc1c[nH]c2ccccc12)NC(=O)[C@@H](CCCNC(=N)N)NC(=O)[C@@H](C)NC(=O)[C@@H](CC(C)C)NC(=O)[C@@H](Cc1c[nH]c2ccccc12)NC(=O)[C@@H](CCCNC(=N)N)NC(=O)[C@@H](CC(C)C)NC(=O)[C@@H](CC(C)C)NC(=O)[C@@H](CCCNC(=N)N)NC(=O)[C@@H](CO)NC(=O)[C@@H](CC(C)C)NC(=O)[C@@H](Cc1c[nH]c2ccccc12)NC(=O)[C@@H](CCCNC(=N)N)NC(=O)[C@@H](CC(C)C)NC(=O)[C@@H](CC(C)C)NC(=O)[C@@H](Cc1c[nH]c2ccccc12)NC(=O)[C@H](N)CCCCN)C(=O)NCC(=O)O (H-[dK][dW][dL][dL][dR][dW][dL][dS][dR][dL][dL][dR][dW][dL][dA][dR][dW][dL]G-OH) | 340 | 345 |  | 10
